Data taken from patent publication US9597331B2, “Therapeutic compositions containing macitentan” (ACTELION PHARMACEUTICALS LTD, priority 2008, dated 2017).

Tested on: pulmonary hypertensive male Wistar rats treated with monocrotaline
Experiment: Acute effect on mean pulmonary arterial pressure in monocrotaline treated rats (monocrotaline model of pulmonary hypertension, variant 2)
Format: in vivo, rat
Settings: single administration, 25 to 30 days after monocrotaline, negative area = pressure decreases
Method: Male Wistar rats are purchased from Harlan (Netherlands) and maintained under conditions in accordance with local guidelines (Basel-Landschaft cantonal veterinary office). All rats are housed in climate-controlled conditions with a 12:12 hour light:dark cycle, and had free access to chow and water. A telemetry system is implanted under anaesthesia by inhalation of 2.5% isoflurane (in 70% O2+30% N2O). Under aseptic conditions, a pressure radio-frequency transmitter is implanted into the peritoneal cavity, and a sensing catheter is inserted in the pulmonary artery. The transmitter is sutured to the abdominal musculature and the skin is closed. […]
Four weeks after injection of MCT, the rats become pulmonary hypertensive and the respective effects of a single oral administration of Macitentan, of the compound having prostacyclin receptor (IP) agonist properties and of their combination can be evaluated on mean pulmonary arterial pressure. […]
Mean pulmonary arterial pressure was measured over time. […] Area Under Curve (AUC) was calculated for each group of rats after the oral administration of the different treatment(s) (a positive area being found if the mean pulmonary arterial blood pressure increases and a negative area being found if the mean pulmonary arterial blood pressure decreases).

Which “AUC (Area Under Curve of mean pulmonary arterial pressure vs time)” value (macitentan 10 mg/kg per os) does the source give for CCCNS(=O)(=O)Nc1ncnc(OCCOc2ncc(Br)cn2)c1-c1ccc(Br)cc1 [macitentan] here?
Its value is −381 ± 147.

Which “AUC (Area Under Curve of mean pulmonary arterial pressure vs time)” value (NS-304 30 mg/kg per os) does the source give for CC(C)N(CCCCOCC(=O)NS(C)(=O)=O)c1cnc(-c2ccccc2)c(-c2ccccc2)n1 [NS-304, 2-{4-[(5,6-diphenylpyrazin-2-yl)(isopropyl)amino]butoxy}-N-(methylsulfonyl)acetamide] here?
Its value is −99 ± 128.
